Results reported in patent US20230226008A1 (Massachusetts Eye and Ear Infirmary, priority 2020, published 2023).

How the values were obtained:
[1] = test system: organotypic nasal polyp explants
P-gp = P-gp (Homo sapiens, UniProt P08183); conditions: literature reference 29; cited from earlier work
Sequence of P-gp (P08183 whole entry): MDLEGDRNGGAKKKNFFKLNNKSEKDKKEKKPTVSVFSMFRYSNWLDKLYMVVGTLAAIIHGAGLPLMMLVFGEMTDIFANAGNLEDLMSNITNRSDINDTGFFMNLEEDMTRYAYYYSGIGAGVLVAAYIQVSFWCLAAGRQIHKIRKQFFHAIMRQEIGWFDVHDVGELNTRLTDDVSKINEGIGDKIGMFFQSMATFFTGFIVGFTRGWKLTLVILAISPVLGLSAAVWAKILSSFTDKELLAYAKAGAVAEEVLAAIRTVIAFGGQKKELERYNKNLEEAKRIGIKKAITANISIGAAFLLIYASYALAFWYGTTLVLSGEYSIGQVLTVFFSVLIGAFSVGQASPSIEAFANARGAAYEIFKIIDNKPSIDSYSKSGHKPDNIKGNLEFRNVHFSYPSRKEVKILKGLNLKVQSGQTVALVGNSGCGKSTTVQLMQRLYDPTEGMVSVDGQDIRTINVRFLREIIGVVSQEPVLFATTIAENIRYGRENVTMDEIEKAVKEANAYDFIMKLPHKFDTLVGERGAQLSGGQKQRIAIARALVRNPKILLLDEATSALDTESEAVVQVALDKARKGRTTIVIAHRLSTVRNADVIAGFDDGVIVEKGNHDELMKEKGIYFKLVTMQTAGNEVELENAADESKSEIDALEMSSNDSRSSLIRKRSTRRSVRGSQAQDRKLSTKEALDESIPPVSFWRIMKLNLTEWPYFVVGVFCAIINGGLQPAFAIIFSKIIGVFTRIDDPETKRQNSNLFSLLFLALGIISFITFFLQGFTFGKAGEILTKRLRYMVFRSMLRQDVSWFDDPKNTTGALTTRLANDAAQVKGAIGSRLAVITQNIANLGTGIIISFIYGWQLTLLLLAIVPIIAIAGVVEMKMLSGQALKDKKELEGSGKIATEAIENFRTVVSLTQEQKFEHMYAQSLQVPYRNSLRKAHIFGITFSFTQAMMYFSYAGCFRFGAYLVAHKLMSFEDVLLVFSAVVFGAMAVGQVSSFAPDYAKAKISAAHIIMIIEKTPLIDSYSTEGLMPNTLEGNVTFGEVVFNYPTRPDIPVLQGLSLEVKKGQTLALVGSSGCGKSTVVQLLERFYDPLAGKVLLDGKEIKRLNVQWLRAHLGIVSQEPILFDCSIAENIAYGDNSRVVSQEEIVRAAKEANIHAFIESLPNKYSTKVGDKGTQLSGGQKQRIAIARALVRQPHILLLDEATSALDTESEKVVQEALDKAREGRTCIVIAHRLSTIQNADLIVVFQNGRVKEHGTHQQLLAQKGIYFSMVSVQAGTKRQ

Compound | tissue mometasone retention in polyps versus lower P-gp expressing turbinates [1] | reduction in mometasone retention between the lowest and highest P-gp expressing polyp explants ([1]; human, not told, 60 min) [fold] | P-gp substrate status ([1]; not told) | affinity for P-gp (P-gp)
C[C@@H]1C[C@H]2[C@@H]3CCC4=CC(=O)C=C[C@]4(C)[C@@]3(Cl)[C@@H](O)C[C@]2(C)[C@@]1(OC(=O)c1ccco1)C(=O)CCl [mometasone, [(8S,9R,10S,11S,13S,14S,16R,17R)-9-chloro-17-(2-chloroacetyl)-11-hydroxy-10,13,16-trimethyl-3-oxo-6,7,8,11,12,14,15,16-octahydrocyclopenta[a]phenanthren-17-yl]furan-2-carboxylate] | significantly lower | ~6 | substrate of P-gp | –
CCCC1O[C@@H]2C[C@H]3[C@@H]4CCC5=CC(=O)C=C[C@]5(C)[C@H]4[C@@H](O)C[C@]3(C)[C@]2(C(=O)CO)O1 (stereo partly shown) [budesonide] | – | – | – | high affinity
